Experiments:
TgUPRT (wild type) = biological target: T1, TgUPRT (wild type) (Toxoplasma gondii, UniProt Q26998); assay: Specific activity of TgUPRT variants with uracil analog substrates in vitro (phosphoribosyltransferase, HPLC); assay type: biochemical; settings: 0.5 μg enzyme in 80 μL, 37° C., 2-5 min, substrates 1 mM, PBS pH 7.4; DMSO none (Uracil, 5-BrVUra), 1.6% (5-EtUra, 5-AU, 5AMU), 3.2% (5-VUra)
T1 construct: made in house; host or cells: E. coli BL21(DE3)
Description: Enzyme activity assay: The standard activity assay was performed by incubating 10 μL of free extract or 0.5 μg of pure His-tag enzyme with 1 mM Phosphoribosyl pyrophosphate (PRPP), 1 mM uracil, 5 mM MgCl2 in 50 mM PBS buffer pH 7.4 in a final volume of 80 μL. The reaction mixture was incubated at 37° C. for 2-5 min (300 rpm). Enzyme was inactivated by adding 80 μL of cold methanol in ice-bath and heating for 5 min at 100° C. After centrifugation at 9000×g for 5 min, samples were half-diluted with water and the NMP production was analysed by HPLC to quantitatively measure the reaction products as described below in the analytical methods. All determinations were carried out in triplicate assuming Michaelis-Menten conditions, and the maximum error was below 5%. […]
Substrate specificity studies Enzymatic synthesis of the different pyrimidine nucleoside monophosphate (NMP) derivatives was carried out by incubating 0.5 μg of pure His-tag enzyme with 1 mM PRPP, 1 mM pyrimidine base and 5 mM MgCl2 in 50 mM PBS buffer pH 7.4 (1.6-3.2% v/v DSMO). […] Subsequently, the reaction mixture was processed as described above and the NMP production was analyzed by HPLC.
Analytical methods: The production of NMPs was quantitatively measured with an ACE EXCEL 5 μm CN-ES 250×4.6 mm equilibrated with 100% trimethyl ammonium acetate at a flow rate of 0.8 mL/min. […]

(−)TgUPRT HEK cells = assay: Background incorporation of uracil analogs into RNA, streptavidin-HRP dot blot; assay type: cell-based; settings: for incorporation into RNA at higher concentration: 1 mM, mimics in vivo applications, FIG. 4
Description: Transfection, labeling of cellular RNA and RNA isolation: After 48h seeding, HEK293 cells were transfected with 2.5 μg of TgUPRT WT or mutant plasmids (pKN-CMV-TgUPRT-WT or -Mutt to Mut17) per 5 cm plate using JetPrime Transfection reagent (Polyplus Transfection, France). At 40h post-transfection, cells were incubated with a final concentration of 200 μM at <1% DMSO from 400 mM stock of uracil analogs (5EU, 5VU, 5AU) or 200 mM SAMU stock for 5 h. For time course study, HEK cells were treated with 200 μM uracil analogs for 0 h, 0.5, 1, 3, 5, 12 and 24 hours. For titrating uracil analog concentration experiments, HEK cells were treated with 0 (DMSO), 50, 100, 200, 500 μM or 1 mM uracil analog for 5h. Treated HEK cells were subjected to total RNA extraction using 1 mL Trizol Reagent (Invitrogen) following the manufacturer instructions.
Biotinylation via CuAAC and IEDDA: Cu-mediated Azide-Alkyne cycloaddition (CuAAC) click reactions were performed in 50 μL reaction at 22° C. on a shaker for 30 min with click reaction cocktail containing 15 μg of total RNA, 1 mM biotin alkyne or biotin azide, fresh 4.6 mM THPTA to a final concentration of 1 mM, and fresh 10.6 mM sodium ascorbate (NaAsc) at final concentration of 1.77 mM, and 12 mM CuSO4 at final concentration of 200 μM in biotinylation reaction buffer (10 mM TrisHCI, 1 mM EDTA, pH7.4). The biotinylated RNA was purified using RNA clean & Concentrator-5 kit (Zymo Research, Cat #R1013) according to the manufacturer instructions and eluted in 21 μL of nuclease free water.
Inverse electron demand [4+2] Diels-Alder cycloaddition (IEDDA) click reactions were performed in 50 μL at 37° C. or 22° C. (RT) for 3h on mixer at 500 rpm containing 10-15 μg of total RNA, 1 mM final concentration of biotin-benzyl tetrazine (Sigma Aldrich, Cat #793329-5MG) in nuclease free water. Clicked total RNA was purified using RNA clean & Concentrator-5 kit (Zymo Research, Cat #R1013) according to the manufacturer instructions, and RNA was eluted in 21 μL of nuclease free water.
HRP-streptavidin dot blot analysis: All gel reagents were from Bio-Rad. For dot blot analysis, 2 μg of clicked total RNA was applied onto Hybond-N+ membrane (GE Healthcare) as individual dots and UV-crosslinked (254 nm) to a membrane (Stratalinker UV crosslinker). Membranes were blocked in blocking buffer (0.12 M NaCl, 0.016 M Na2HPO4, 0.008 M NaH2PO4, 0.17 M SDS) and followed by incubation with high sensitivity streptavidin-HRP (Fisher Scientific, Cat #: P121130) at 1:5000 dilution in blocking buffer for 5 minutes. The membrane was washed twice in a Wash A buffer (1:10 dilution of blocking buffer) and twice in Wash B buffer (Tris-saline buffer). […]

T1 sequence (Q26998 whole entry): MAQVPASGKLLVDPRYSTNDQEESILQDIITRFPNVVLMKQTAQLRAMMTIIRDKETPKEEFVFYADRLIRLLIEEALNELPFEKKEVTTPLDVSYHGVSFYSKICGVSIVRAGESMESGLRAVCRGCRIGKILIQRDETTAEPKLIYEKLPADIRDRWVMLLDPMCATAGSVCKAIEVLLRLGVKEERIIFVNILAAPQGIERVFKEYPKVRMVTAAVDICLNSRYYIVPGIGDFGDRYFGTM

Compound | Specific Activity, TgUPRT (TgUPRT (wild type)) | incorporation into RNA at higher concentration ((−)TgUPRT HEK cells) | background incorporation into RNA ((−)TgUPRT HEK cells; (−)TgUPRT HEK cells, FIGS. 3A, 3B)
C=Cc1c[nH]c(=O)[nH]c1=O [compound 2, 5-Vinylpyrimidine-2,4(1H,3H)-dione] | undetectable activity | not observed | –
C#Cc1c[nH]c(=O)[nH]c1=O [compound 1, 5-ethynylpyrimidine-2,4(1H,3H)-dione] | reactive | very robust incorporation | low level of background incorporation

— patent US20240117431A1, “STEM-CELL BASED BIOMARKER DISCOVERY” (THE REGENTS OF THE UNIVERSITY OF CALIFORNIA, priority 2020, published 2024)
